According to patent US9493444B2 (Merck Patent GmbH, priority 2012, dated 2016):
pIC50: −log10 of the molar value.

test system: Wnt pathway (TCF-dependent transcription in HEK293 luciferase reporter cell line with ER-DSH construct); assay: Cellular assay for Wnt pathway activity (luciferase reporter); type: cell-based; settings: Homo sapiens; Wnt pathway inhibition, HEK293 luciferase reporter cells (ER-DSH, TCF promoter), 24 hours incubation, estrogen-induced
How it was run: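 Compounds (30 μM down to 1 nM) were incubated 24 h on cells induced for TCF-dependent transcription with estrogen. Luciferase activity was read by luminescence, normalized to untreated vehicle control, and fitted for IC50.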

Q: With `CC(=O)N(C)CCN(C)c1cncc(Oc2ccc(/C=C/c3ccccn3)cc2)n1` [Compound 145, N-Methyl-N-[2-(methyl-{6-[4-((E)-2-pyridin-2-yl-vinyl)-phenoxy]-pyrazin-2-yl}-amino)-ethyl]-acetamide] as the compound, how does the pIC50 read?
A: > 6.70

Q: `CC(=O)N(C)CCN(C)c1cncc(Oc2ccc(-c3noc(C)n3)cc2)n1` [Compound 146, N-Methyl-N-[2-(methyl-{6-[4-(5-methyl-[1,2,4]oxadiazol-3-yl)-phenoxy]-pyrazin-2-yl}-amino)-ethyl]-acetamide] was tested. Which pIC50 did it give?
A: 6.00 to 6.70

Q: `CC(=O)N(C)CCN(C)c1cncc(Oc2ccc(C(=O)c3ccccc3)cc2)n1` [Compound 147] was tested. Which pIC50 did it give?
A: 6.00 to 6.70

Q: How did the pIC50 turn out when `CCc1ccc(C2=NN(C(=O)c3ccc(Oc4cncc(N(C)CCN(C)C(C)=O)n4)cc3)CCC2)cc1` [Compound 148, N-{2-[(6-{4-[3-(4-Ethyl-phenyl)-5,6-dihydro-4H-pyridazine-1-carbonyl]-phenoxy}-pyrazin-2-yl)-methyl-amino]-ethyl}-N-methyl-acetamide] was run?
A: 5.00 to 6.00

Q: How did the pIC50 turn out when `CC(=O)N(C)CCN(C)c1cncc(Oc2ccc(N3CCNCC3)cc2)n1` [Compound 149, N-Methyl-N-(2-{methyl-[6-(4-piperazin-1-yl-phenoxy)-pyrazin-2-yl]-amino}-ethyl)-acetamide] was run?
A: 5.00 to 6.00

Q: With `CC(=O)N(C)CCN(C)c1cncc(Oc2ccc(-c3ccccc3S(C)(=O)=O)cc2)n1` [Compound 150, N-(2-{[6-(2′-Methane-sulfonyl-biphenyl-4-yloxy)-pyrazin-2-yl]-methyl-amino}-ethyl)-N-methyl-acetamide] as the compound, how does the pIC50 read?
A: > 6.70

Q: How did the pIC50 turn out when `CC(=O)N(C)CCN(C)c1cncc(Oc2ccc(-c3ccc(=O)[nH]n3)cc2)n1` [Compound 151, N-Methyl-N-[2-(methyl-{6-[4-(6-oxo-1,6-dihydro-pyridazin-3-yl)-phenoxy]-pyrazin-2-yl}-amino)-ethyl]-acetamide] was run?
A: 6.00 to 6.70

Q: With `CC(=O)N(C)CCN(C)c1cncc(Oc2ccc(-c3ccc(F)cn3)cc2)n1` [Compound 152, N-[2-({6-[4-(5-Fluoro-pyridin-2-yl)-phenoxy]-pyrazin-2-yl}-methyl-amino)-ethyl]-N-methyl-acetamide] as the compound, how does the pIC50 read?
A: > 6.70

Q: With `CC(=O)N(C)CCSc1cncc(Oc2ccc(-c3ccc(C)cn3)cc2)n1` [Compound 153, N-Methyl-N-(2-{6-[4-(5-methyl-pyridin-2-yl)-phenoxy]-pyrazin-2-ylsulfanyl}-ethyl)-acetamide] as the compound, how does the pIC50 read?
A: > 6.70

Q: With `CC(=O)N(C)CCN(C)c1cncc(Oc2ccc3[nH]c(=O)oc3c2)n1` [Compound 154, N-Methyl-N-(2-{methyl-[6-(2-oxo-2,3-dihydro-benzooxazol-6-yloxy)-pyrazin-2-yl]-amino}-ethyl)-acetamide] as the compound, how does the pIC50 read?
A: 5.00 to 6.00

Q: How did the pIC50 turn out when `CC(=O)Oc1cnc(-c2ccc(Oc3cncc(N(C)CCN(C)C(C)=O)n3)cc2)nc1` [Compound 155, Acetic acid 2-[4-(6-{[2-(acetyl-methyl-amino)-ethyl]-methyl-amino}-pyrazin-2-yloxy)-phenyl]-pyrimidin-5-yl ester] was run?
A: 5.00 to 6.00

Q: How did the pIC50 turn out when `CN(CCC(N)=O)c1cncc(Oc2ccc(F)cc2)n1` [Compound 156, 3-{[6-(4-Fluoro-phenoxy)-pyrazin-2-yl]-methyl-amino}-propion-amide] was run?
A: 5.00 to 6.00

Q: `CC(=O)N(C)CCN(C)c1cncc(Oc2ccc(C(=O)c3ccco3)cc2)n1` [Compound 157, N-[2-({6-[4-(Furan-2-carbonyl)-phenoxy]-pyrazin-2-yl}-methyl-amino)-ethyl]-N-methyl-acetamide] was tested. Which pIC50 did it give?
A: > 6.70

Q: How did the pIC50 turn out when `CC(=O)N(C)CCN(C)c1cncc(Oc2ccc(-c3nccs3)cc2)n1` [Compound 158, N-Methyl-N-(2-{methyl-[6-(4-thiazol-2-yl-phenoxy)-pyrazin-2-yl]-amino}-ethyl)-acetamide] was run?
A: > 6.70

Q: How did the pIC50 turn out when `CC(=O)N(C)CCN(C)c1cncc(Oc2ccc(Cc3ncc(C(F)(F)F)cc3Cl)cc2)n1` [Compound 159, N-[2-({6-[4-(3-Chloro-5-trifluoro-methyl-pyridin-2-ylmethyl)-phenoxy]-pyrazin-2-yl}-methyl-amino)-ethyl]-N-methyl-acetamide] was run?
A: 6.00 to 6.70

Q: With `CC(=O)N(C)CCN(C)c1cncc(Oc2ccc(-c3cccc(C)n3)cc2)n1` [Compound 160, N-Methyl-N-[2-(methyl-{6-[4-(6-methyl-pyridin-2-yl)-phenoxy]-pyrazin-2-yl}-amino)-ethyl]-acetamide] as the compound, how does the pIC50 read?
A: > 6.70

Q: `CC(=O)N(C)CCN(C)c1cncc(Oc2ccc(-c3ncccn3)cc2)n1` [Compound 161, N-Methyl-N-(2-{methyl-[6-(4-pyrimidin-2-yl-phenoxy)-pyrazin-2-yl]-amino}-ethyl)-acetamide] was tested. Which pIC50 did it give?
A: 6.00 to 6.70

Q: With `CC(=O)N(C)CCN(C)c1cncc(Oc2ccc(-c3ccc(C(F)(F)F)cn3)cc2)n1` [Compound 162, N-Methyl-N-[2-(methyl-{6-[4-(5-trifluoro-methyl-pyridin-2-yl)-phenoxy]-pyrazin-2-yl}-amino)-ethyl]-acetamide] as the compound, how does the pIC50 read?
A: 6.00 to 6.70

Q: `COc1ccc(-c2ccc(Oc3cncc(N(C)CCN(C)C(C)=O)n3)cc2)nc1` [Compound 163, N-[2-({6-[4-(5-Methoxy-pyridin-2-yl)-phenoxy]-pyrazin-2-yl}-methyl-amino)-ethyl]-N-methyl-acetamide] was tested. Which pIC50 did it give?
A: > 6.70

Q: `CC(=O)N(C)CCN(C)c1cncc(Oc2ccc(-c3ncccc3N3CCOCC3)cc2)n1` [Compound 164, N-Methyl-N-[2-(methyl-{6-[4-(3-morpholin-4-yl-pyridin-2-yl)-phenoxy]-pyrazin-2-yl}-amino)-ethyl]-acetamide] was tested. Which pIC50 did it give?
A: 5.00 to 6.00

Q: With `CC(=O)N(C)CCN(C)c1cncc(Oc2ccc(-c3ncc(O)cn3)cc2)n1` [Compound 165, N-[2-({6-[4-(5-Hydroxy-pyrimidin-2-yl)-phenoxy]-pyrazin-2-yl}-methyl-amino)-ethyl]-N-methyl-acetamide] as the compound, how does the pIC50 read?
A: 5.00 to 6.00

Q: How did the pIC50 turn out when `CC(=O)N(C)CCN(C)c1cncc(Oc2ccc(-c3cc4ccccc4cn3)cc2)n1` [Compound 166, N-(2-{[6-(4-Isoquinolin-3-yl-phenoxy)-pyrazin-2-yl]-methyl-amino}-ethyl)-N-methyl-acetamide] was run?
A: 6.00 to 6.70

Q: How did the pIC50 turn out when `CCc1ccnc(-c2ccc(Oc3cncc(N(C)CCN(C)C(C)=O)n3)cc2)c1` [Compound 167, N-[2-({6-[4-(4-Ethyl-pyridin-2-yl)-phenoxy]-pyrazin-2-yl}-methyl-amino)-ethyl]-N-methyl-acetamide] was run?
A: 6.00 to 6.70

Q: How did the pIC50 turn out when `CC(=O)N(CCN(c1cncc(Oc2ccc(F)cc2)n1)C(C)C)C(C)C` [Compound 168, N-(2-{[6-(4-Fluoro-phenoxy)pyrazin-2-yl]-isopropyl-amino}-ethyl)-N-isopropyl-acetamide] was run?
A: 6.00 to 6.70

Q: `CC(=O)N(CCSc1cncc(Oc2ccc(-c3ccc(C)cn3)cc2)n1)C(C)C` [Compound 169, N-Isopropyl-N-(2-{6-[4-(5-methyl-pyridin-2-yl)-phenoxy]-pyrazin-2-ylsulfanyl}-ethyl)-acetamide] was tested. Which pIC50 did it give?
A: > 6.70

Q: How did the pIC50 turn out when `CC(=O)N(C)CCN(C)c1cncc(Oc2ccc(-c3cccc(C(N)=O)n3)cc2)n1` [Compound 170, 6-[4-(6-{[2-(Acetyl-methyl-amino)-ethyl]-methyl-amino}-pyrazin-2-yloxy)-phenyl]-pyridine-2-carboxylic acid amide] was run?
A: > 6.70

Q: How did the pIC50 turn out when `CC(=O)Nc1cccc(-c2ccc(Oc3cncc(N(C)CCN(C)C(C)=O)n3)cc2)n1` [Compound 171, N-[2-({6-[4-(6-Acetylamino-pyridin-2-yl)-phenoxy]-pyrazin-2-yl}-methyl-amino)-ethyl]-N-methyl-acetamide] was run?
A: > 6.70

Q: With `CC(=O)N(C)CCN(C)c1cncc(Oc2ccc(-c3cc(N)ccn3)cc2)n1` [Compound 172, N-[2-({6-[4-(4-Amino-pyridin-2-yl)-phenoxy]-pyrazin-2-yl}-methyl-amino)-ethyl]-N-methyl-acetamide] as the compound, how does the pIC50 read?
A: 6.00 to 6.70

Q: `CC(=O)N(C)CCN(C)c1cncc(Oc2ccc(-c3cc(N4CCN(C)CC4)ccn3)cc2)n1` [Compound 173, N-Methyl-N-{2-[methyl-(6-{4-[4-(4-methyl-piperazin-1-yl)-pyridin-2-yl]-phenoxy}-pyrazin-2-yl)-amino]-ethyl}-acetamide] was tested. Which pIC50 did it give?
A: 5.00 to 6.00

Q: How did the pIC50 turn out when `CC(=O)N(C)CCN(C)c1cncc(Oc2ccc(-c3cc(C)cc[n+]3[O-])cc2)n1` [Compound 174, N-Methyl-N-[2-(methyl-{6-[4-(4-methyl-1-oxy-pyridin-2-yl)-phenoxy]-pyrazin-2-yl}-amino)-ethyl]-acetamide] was run?
A: 6.00 to 6.70

Q: `CC(=O)N(C)CCN(C)c1cncc(Oc2ccc(-c3ccc(N4CCOCC4)nc3)cc2)n1` [Compound 175, N-Methyl-N-[2-(methyl-{6-[4-(6-morpholin-4-yl-pyridin-3-yl)-phenoxy]-pyrazin-2-yl}-amino)-ethyl]-acetamide] was tested. Which pIC50 did it give?
A: > 6.70

Q: `CC(=O)OCc1ccc(Oc2cncc(N(C)CCN(C)C(C)=O)n2)cc1` [Compound 176, Acetic acid 4-(6-{[2-(acetyl-methyl-amino)-ethyl]-methyl-amino}-pyrazin-2-yloxy)-benzyl ester] was tested. Which pIC50 did it give?
A: > 6.70

Q: `CC(=O)N(C)CCN(C)c1cncc(Oc2ccc(-c3cccnc3N)cc2)n1` [Compound 177, N-[2-({6-[4-(2-Amino-pyridin-3-yl)-phenoxy]-pyrazin-2-yl}-methyl-amino)-ethyl]-N-methyl-acetamide] was tested. Which pIC50 did it give?
A: > 6.70

Q: How did the pIC50 turn out when `CC(=O)N(C)CCN(C)c1cncc(Oc2ccc(C3CCC(=O)CC3)cc2)n1` [Compound 178, N-Methyl-N-[2-(methyl-{6-[4-(4-oxo-cyclohexyl)-phenoxy]-pyrazin-2-yl}-amino)-ethyl]-acetamide] was run?
A: > 6.70

Q: With `CC(=O)N(C)CCN(C)c1cncc(Oc2ccc(C3CCC(C)CO3)cc2)n1` (stereo not drawn) [Compound 179, N-Methyl-N-[2-(methyl-{6-[4-(5-methyl-tetrahydro-pyran-2-yl)-phenoxy]-pyrazin-2-yl}-amino)-ethyl]-acetamide] as the compound, how does the pIC50 read?
A: > 6.70

Q: How did the pIC50 turn out when `CCOc1ccc(-c2ccc(Oc3cncc(N(C)CCN(C)C(C)=O)n3)cc2)c(F)c1F` [Compound 180, N-(2-{[6-(4′-Ethoxy-2′,3′-difluoro-biphenyl-4-yloxy)-pyrazin-2-yl]-methyl-amino}-ethyl)-N-methyl-acetamide] was run?
A: 6.00 to 6.70
